These results are taken from patent US6407079B1, “Pharmaceutical compositions containing drugs which are instable or sparingly soluble in water and methods for their preparation” (Janssen Pharmaceutica N.V., priority 1985, dated 2002).

≈ marks a conversion by molar mass, not a printed value. Like-named read-outs stand apart in the source and are kept apart here.

The nature of one series: physchem. As to conditions: for solubility at 24 h: 25 °C, thermodynamic from solid; for Ratio S1:S2: 24 h, pH 6.6.
Series [1] is described as follows: Solubility of drugs in 4% aqueous hydroxypropyl-methyl-β-cyclodextrin solution (Example 2B). As to conditions: in water, 4% hydroxypropyl-methyl-β-cyclodextrin (DS 0.96; MS 0.43).
A short description of series [2]: Dissolution rate of medroxyprogesterone acetate from tablet (Example 5). It is filed as physicochemical. As to conditions: tablet with hydroxyethyl-β-cyclodextrin (MS 0.43), 5 mg drug per unit dose. On the procedure:
In 100 ml water 7 g hydroxyethyl-β-cyclodextrin (MS 0.43) and 0.5 g medroxyprogesterone acetate were dissolved. The water was then evaporated in a rotation evaporator The residue (75 mg) was powdered and after addition of 366 mg calcium hydrogen phosphate.2H2O, 60 mg corn starch, 120 mg cellulose powder (microcrystalline), 4.2 mg highly dispersed silica (AEROSIL® 200) and 4.8 mg magnesium stearate tablets with a weight of 630.0 mg and comprising 5 mg drug per unit dose were made. The dissolution rate of the medroxyprogesterone acetate from this formulation is 21 times higher when compared to a tablet comprising the same inert ingredients without addition of the β-cyclodextrin ether.

Series [3] is described as follows: Storage stability of indometacin solutions, HPLC (Example 3). It is filed as physicochemical. As to conditions: for Indometacin content: 21° C. On the procedure:
In 10 ml phosphate buffer solution 0.7 g hydroxyethyl-β-cyclodextrin (MS 0.43) were dissolved together with 0.04 g indometacin at 25° C. until a clear solution was formed. […] (B). In a parallel test a saturated indometacin solution in a phosphate buffer solution (0.21 mg/ml) was stored under the same conditions (A). The great improved stability of the composition according to the invention is apparent.

The conditions of series [4]: German Offenlegungsschrift 31 18 218; cited from earlier work.
For series [5] the following is noted: 24 h.
In a further series the test system is rats. It is filed as in vivo. On the procedure:
The acute intravenous toxicity of some β-cyclodextrins was tested on rats with the following results.

The conditions of series [6]: cited from earlier work.
A further series relates to human red blood cells. Briefly: Haemolytic effect on human red blood cells. It is filed as cell-based. The following applies: 30 minutes at 37° C., optical density at 540 nm. As to the method: The haemolytic effect of the methylether according to German Offenlegungsschrift 31 18 218 was compared to that of an ether used according to the invention. To this end 100 μl of a physiological sodium chloride solution with a cyclodextrin content of 10%, 800 μl of a buffer (400 mg MOPS, 36 mg Na2HPO4.2H2O, 1,6 g NaCl in 200 ml H2O) and 100 μl of a suspension of human red blood cells (three times washed with sodium chloride solution) were mixed for 30 minutes at 37° C. Thereafter the mixture was centrifuged and the optical density was determined at 540 nm.
a) 100 μl sodium chloride solution+buffer+0% haemolysis
b) 900 μl water→100% haemolysis

Setting [7] is: pH 6.6, aqueous with cosolvent or surfactant or cyclodextrin.

On to `CC(=O)[C@H]1CC[C@H]2[C@@H]3CCC4=CC(=O)CC[C@]4(C)[C@H]3CC[C@]12C` [Progesterone], for which the solubility (usually the dissolved amount per volume that the medium holds) at 24 h came out at 7.1 µg/mL (≈ 0.0226 mM) in “physchem” (pH 6.6, aqueous buffer) and 7690 µg/mL (≈ 24.5 mM) in “physchem” (setting [7]). Moreover, the “Ratio S1:S2” value in the series “physchem” was 1:1083.0.
`CN(C)C(=O)C(CCN1CCC(O)(c2ccc(Cl)cc2)CC1)(c1ccccc1)c1ccccc1` [Loperamide]: in series [1], the “R, ratio of saturation solubility with and without β-cyclodextrin derivative” value amounted to 62.
`CC(=O)O[C@]1(C(C)=O)CC[C@H]2[C@@H]3C[C@H](C)C4=CC(=O)CC[C@]4(C)[C@H]3CC[C@@]21C` [medroxyprogesterone acetate]: in series [2], the “Dissolution rate, times higher than tablet without β-cyclodextrin ether” value was found to be 21 times.
`CCOC(=O)Nc1ccc(SC[C@@H]2CO[C@@](Cn3ccnc3)(c3ccc(Cl)cc3Cl)O2)cc1` [Tubulazole]: the “R, ratio of saturation solubility with and without β-cyclodextrin derivative” value in series [1] is recorded as 43.
Turning to `COc1ccc2c(c1)c(CC(=O)O)c(C)n2C(=O)c1ccc(Cl)cc1` [Indometacine], the solubility at 24 h in the series “physchem” (pH 6.6, aqueous buffer) came out at 190 µg/mL (≈ 0.531 mM); in the series “physchem” (setting [7]) it was 5720 µg/mL (≈ 16 mM). Moreover, in the series “physchem”, the “Ratio S1:S2” value is reported as 1:30.1. Also, the Indometacin content in series [3] (A: saturated solution in phosphate buffer, 0 weeks) is listed as 100.1%; in series [3] (A: saturated solution in phosphate buffer, 2 weeks) it was 91.2%; in [3] (A: saturated solution in phosphate buffer, 4 weeks), 79.1%; in series [3] (A: saturated solution in phosphate buffer, 6 weeks), 69.8%; in series [3] (A: saturated solution in phosphate buffer, 8 weeks), 64.8%; in series [3] (B: with hydroxyethyl-β-cyclodextrin (MS 0.43) in phosphate buffer, 0 weeks), 99.7%. The Indometacin content in series [3] (B: with hydroxyethyl-β-cyclodextrin (MS 0.43) in phosphate buffer, 2 weeks) is 99.9%; in series [3] (B: with hydroxyethyl-β-cyclodextrin (MS 0.43) in phosphate buffer, 4 weeks), 98.1%; in series [3] (B: with hydroxyethyl-β-cyclodextrin (MS 0.43) in phosphate buffer, 6 weeks), 98.6%; in series [3] (B: with hydroxyethyl-β-cyclodextrin (MS 0.43) in phosphate buffer, 8 weeks), 98.4%. The “Concentration of saturated indometacin solution in phosphate buffer solution” value in [3] (phosphate buffer solution, no cyclodextrin) came out at 210 µg/mL. For the same compound, in series [4], the “Increase of water solubility with the 2,6-di-O-methyl derivative of β-cyclodextrin” value is listed as 20.4 fold.
Turning to `Fc1ccc(C(c2ccc(F)cc2)N2CCN(C/C=C/c3ccccc3)CC2)cc1` [Flunarizine], in series [5], the “R, ratio of saturation solubility with and without β-cyclodextrin derivative” value is recorded as 18.
With `C[C@@H]1CN([C@H]2CC[C@](C#N)(c3ccc(F)cc3)CC2)CC[C@]1(C(=O)O)c1ccccc1` [Levocabastine], the “R, ratio of saturation solubility with and without β-cyclodextrin derivative” value amounted to 8 in series [5] (pH 7.4) and 81 in series [5] (pH 9.5).
For `COc1cc(N)c(Cl)cc1C(=O)NC1CCN(CCCOc2ccc(F)cc2)CC1OC` (stereo not shown) [Cisapride], the “R, ratio of saturation solubility with and without β-cyclodextrin derivative” value in series [5] was found to be 3.
In the case of `C[C@@H]1C[C@H]2[C@@H]3CCC4=CC(=O)C=C[C@]4(C)[C@@]3(F)[C@@H](O)C[C@]2(C)[C@@]1(O)C(=O)CO` [Dexamethasone], the solubility at 24 h worked out at 83 µg/mL (≈ 0.211 mM) in the series “physchem” (pH 6.6, aqueous buffer) and 14300 µg/mL (≈ 36.4 mM) in the series “physchem” (setting [7]).
In the case of `CC(=O)N1CCN(c2ccc(OCC3COC(Cn4ccnc4)(c4ccc(Cl)cc4Cl)O3)cc2)CC1` (stereo not shown) [Ketoconazole], in series [5], the “R, ratio of saturation solubility with and without β-cyclodextrin derivative” value was found to be 85.
Take `CCOC(=O)c1cncn1[C@H](C)c1ccccc1` [Etomidate]: the “R, ratio of saturation solubility with and without β-cyclodextrin derivative” value in series [1] is on record as 8.5.
For `CCC(C)n1ncn(-c2ccc(N3CCN(c4ccc(OCC5COC(Cn6cncn6)(c6ccc(Cl)cc6Cl)O5)cc4)CC3)cc2)c1=O` (stereo not shown) [Itraconazole], the “R, ratio of saturation solubility with and without β-cyclodextrin derivative” value in [5] (pH 2.5) turned out to be 75; in [5] (pH 5) it was 96.
As for `COC(=O)Nc1nc2cc(C(=O)c3ccc(F)cc3)ccc2[nH]1` [Flubendazole], the “R, ratio of saturation solubility with and without β-cyclodextrin derivative” value in series [5] turned out to be 30.
For the compound `OC[C@H]1O[C@@H]2O[C@H]3[C@H](O)[C@@H](O)[C@@H](O[C@H]4[C@H](O)[C@@H](O)[C@@H](O[C@H]5[C@H](O)[C@@H](O)[C@@H](O[C@H]6[C@H](O)[C@@H](O)[C@@H](O[C@H]7[C@H](O)[C@@H](O)[C@@H](O[C@H]8[C@H](O)[C@@H](O)[C@@H](O[C@H]1[C@H](O)[C@H]2O)O[C@@H]8CO)O[C@@H]7CO)O[C@@H]6CO)O[C@@H]5CO)O[C@@H]4CO)O[C@@H]3CO` [β-cyclodextrin], the “LD50 in rats (i.v.)” value in the series with rats was 453 mg/kg bodyweight. Besides, in [6], the Water solubility is recorded as 1.8 g/100 ml.
Consider “dimethyl-β-cyclodextrin [dimethyl-β-cyclodextrin (DS 2.0)]”, for which the “LD50 in rats (i.v.)” value in the series with rats is given as 200-207 mg/kg bodyweight. Besides, in the series on human red blood cells, the “C50%, concentration at which 50% haemolysis occurred” value worked out at 0.33% and the “C100%, concentration at which 100% haemolysis occurred” value came to 0.5%.
